According to US10159663B2, “Substituted macrocycles useful as kinases inhibitors and methods of use thereof” (TELIGENE LTD., priority 2014, dated 2018):
Converted amounts (≈) assume the structure as drawn. Read-outs that look alike come from different tables or passages of the source.

How the values were obtained:
CYP 3A4 = biological target: T1, CYP 3A4 (Homo sapiens, UniProt P08684); test: P450 3A4 assay in human liver microsomes; assay type: in vitro ADME; conditions: for IC50: probe substrate testosterone
T1 construct: Incubation mixtures in duplicate contain pooled human liver microsome (0.1 mg/mL); from tissue; host or cells: pooled human liver microsomes
T1 sequence (P08684 whole entry): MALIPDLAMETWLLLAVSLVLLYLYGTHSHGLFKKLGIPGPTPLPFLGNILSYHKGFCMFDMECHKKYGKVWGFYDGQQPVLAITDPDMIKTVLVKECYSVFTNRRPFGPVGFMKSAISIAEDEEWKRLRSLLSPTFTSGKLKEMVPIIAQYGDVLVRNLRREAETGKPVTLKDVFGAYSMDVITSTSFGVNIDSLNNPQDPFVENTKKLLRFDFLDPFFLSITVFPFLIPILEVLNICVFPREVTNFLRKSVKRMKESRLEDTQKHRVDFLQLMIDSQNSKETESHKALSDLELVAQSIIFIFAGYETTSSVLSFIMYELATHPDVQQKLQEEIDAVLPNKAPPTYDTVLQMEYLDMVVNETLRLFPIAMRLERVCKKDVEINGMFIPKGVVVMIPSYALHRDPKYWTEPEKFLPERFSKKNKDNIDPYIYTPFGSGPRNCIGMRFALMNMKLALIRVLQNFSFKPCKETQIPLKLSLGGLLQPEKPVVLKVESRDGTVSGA
Experimental: The final concentrations of DMSO and acetonitrile were equal or less than 0.1%.
The column temperature was maintained at ambient temperature (25° C.). […] The flow rate was maintained at 0.6 mL/min.

[1] = Solubility measurement (HPLC); assay type: physicochemical; conditions: for solubility at 30 min: aqueous buffer, thermodynamic from solid, 25° C.
Experimental: The compound was diluted with acetonitrile to 100 mL.
The solution was shook for 2 minutes and left for 30 minutes at 25° C. After standing for 30 minutes, precipitate was formed in the bottom of the EP. The solutions was filtered through 0.2 μm membrane filter, and then diluted by 50 times with water.
The standard and sample solutions were injected into the HPLC on a Shim-Pack CLC-ODS C18 column (150 mm×6.0 mm, 5 um) with the same volume. The mobile phase consisted of acetonitrile with 2% trichloromethane-20 mM KH2PO4 buffer (pH=7.0) at a flow rate of 1 mL/minutes (40:60). The detection wavelength is at 264 nm. Calculation: solubility of sample=the concentration of standard×Area of sample×50/Area of standard.

NCI-H69 Cell = test: Cell proliferation assay (MTT); assay type: cell-based; conditions: Homo sapiens, 72 hours treatment
Experimental: (§1) A Representative Number of Compounds were Assayed Against Different Cancer Cell Lines Such as HCC827 and NCI-H69 Using the Cell Proliferation Assays:
(§2) Cell Proliferation Assays:
(§3) 1. 5×10^3 cells per well in 100 μl of medium were seeded in 96-well plate, while the medium here contained 5% FBS.
(§4) 2. 24 hours later, 100 μl fresh medium was added with various concentrations of compounds into each well, while the medium here was free of FBS.
(§5) 3. After the cells were treated with compounds for 72 hours, 20 μl MTT (5 mg/ml) was added into each well, and then the assay plate was incubated at 37° C. for 4 more hours.
(§6) 4. The assay plate was centrifuged at 800 g for 10 min. The medium was aspirated, 150 μl DMSO was added into each well. The plate was gently shaken for 10 min.
(§7) 5. The absorbance at 570 nm was measured on the plate reader.

HCC827 Cell = test: Cell proliferation assay (MTT); assay type: cell-based; conditions: Homo sapiens, 72 hours treatment
Experimental: as §1, §2, §3, §4, §5, §6, §7

[2] = Rate of metabolism in rat whole blood; assay type: in vitro ADME; conditions: for rate of metabolism (k) in Rat whole blood: 1.0 μM, 37° C., 0-2 h
Experimental: A Representative Number of Compounds were Tested in Rat Whole Blood to Measure Rate of Metabolism.
Preparation of Stock Solutions: Stock solution of test compound was provided in 100% DMSO. The stock solution for each compound was diluted into 500 μM with a mixture of acetonitrile: PBS buffer (2:8) and then diluted into rat blood (pH 7.4) to achieve a final concentration of 1.0 μM.
Incubation: 1.0 μM of test compound in duplicate was incubated in blood at 37° C. Aliquots of 50 μL sample were collected at 0 h, 0.25 h, 0.5 h, 1 h, and 2 h.
Sample preparation: Reactions were terminated at various time points (0, 0.25, 0.5, 1, 2 h) by adding 150 μL of ice-cold acetonitrile containing an internal standard. Centrifuge the plate (4000 rpm, 15 min). 100 μL of supernatants were transferred into a daughter plate containing 200 μL of H2O and 0.1% formic acid (v/v) in each well. The samples were analyzed with UPLC-MS/MS.
Data analysis: The peak area ratio of test compound to internal standard is plotted as a percentage of the relevant zero time point control (% Remained) for each reaction. The rate of metabolism (k) is the slope of the linear regression from log percentage remaining versus incubation time. The T½ is calculated as −0.693/k.

[3] = biological target: T2, EGFR(L747-E749del, A750P) (Homo sapiens, UniProt P00533, A750P/DEL747-749); test: In vitro kinase assay (kinase-tagged phage, affinity beads, qPCR); assay type: binding
T2 construct: made in house; host or cells: E. coli BL21-derived host (T7 phage) or HEK-293 cells
T2 sequence (P00533 with tags, fused parts or gaps DEL747-749/A750P): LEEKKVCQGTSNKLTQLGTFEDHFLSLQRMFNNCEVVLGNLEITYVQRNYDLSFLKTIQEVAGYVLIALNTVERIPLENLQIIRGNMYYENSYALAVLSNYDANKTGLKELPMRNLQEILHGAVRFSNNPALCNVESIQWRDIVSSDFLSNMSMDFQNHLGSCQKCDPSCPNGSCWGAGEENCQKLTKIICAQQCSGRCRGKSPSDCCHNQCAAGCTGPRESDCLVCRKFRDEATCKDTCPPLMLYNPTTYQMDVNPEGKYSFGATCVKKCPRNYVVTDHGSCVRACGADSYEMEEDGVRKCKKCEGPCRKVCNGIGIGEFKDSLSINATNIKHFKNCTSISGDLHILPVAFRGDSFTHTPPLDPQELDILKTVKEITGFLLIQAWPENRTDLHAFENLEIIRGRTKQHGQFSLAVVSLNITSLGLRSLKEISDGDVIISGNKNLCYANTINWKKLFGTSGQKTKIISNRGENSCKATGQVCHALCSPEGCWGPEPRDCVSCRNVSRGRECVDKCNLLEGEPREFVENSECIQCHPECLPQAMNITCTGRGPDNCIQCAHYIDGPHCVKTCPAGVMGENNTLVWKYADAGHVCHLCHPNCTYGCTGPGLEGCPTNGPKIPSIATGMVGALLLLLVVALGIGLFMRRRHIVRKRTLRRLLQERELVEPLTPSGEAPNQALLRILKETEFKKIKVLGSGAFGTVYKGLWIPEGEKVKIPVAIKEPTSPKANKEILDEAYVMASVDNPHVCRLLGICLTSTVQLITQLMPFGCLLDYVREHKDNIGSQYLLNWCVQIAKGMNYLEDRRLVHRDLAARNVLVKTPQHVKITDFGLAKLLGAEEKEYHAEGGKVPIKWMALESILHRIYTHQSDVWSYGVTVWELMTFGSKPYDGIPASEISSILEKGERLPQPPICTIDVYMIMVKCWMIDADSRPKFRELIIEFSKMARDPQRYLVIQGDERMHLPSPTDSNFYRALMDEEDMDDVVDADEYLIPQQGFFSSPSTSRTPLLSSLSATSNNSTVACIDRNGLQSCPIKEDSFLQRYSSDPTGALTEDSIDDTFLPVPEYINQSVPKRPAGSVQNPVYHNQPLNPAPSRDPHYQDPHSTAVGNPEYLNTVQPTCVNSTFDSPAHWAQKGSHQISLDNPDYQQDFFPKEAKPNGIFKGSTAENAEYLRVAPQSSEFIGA
Experimental: (§8) An In Vitro Assay which Determines the Ability of a Test Compound to Inhibit Kinase:
(§9) Kinase-tagged T7 phage strains were prepared in an E. coli host derived from the BL21 strain. E. coli were grown to log-phase and infected with T7 phage and incubated with shaking at 32° C. until lysis. The lysates were centrifuged and filtered to remove cell debris. The remaining kinases were produced in HEK-293 cells and subsequently tagged with DNA for qPCR detection. Streptavidin-coated magnetic beads were treated with biotinylated small molecule ligands for 30 minutes at room temperature to generate affinity resins for kinase assays. The liganded beads were blocked with excess biotin and washed with blocking buffer (SeaBlock (Pierce), 1% BSA, 0.05% Tween 20, 1 mM DTT) to remove unbound ligand and to reduce non-specific binding. […] All reactions were performed in polystyrene 96-well plates in a final volume of 0.135 ml. […] The kinase concentration in the eluates was measured by qPCR.

ERBB4 = biological target: T3, ERBB4 (Homo sapiens, UniProt Q15303); test: as above; assay type: binding; conditions: Table A
T3 construct: made in house; host or cells: E. coli BL21-derived host (T7 phage) or HEK-293 cells
T3 sequence (Q15303 26-1308): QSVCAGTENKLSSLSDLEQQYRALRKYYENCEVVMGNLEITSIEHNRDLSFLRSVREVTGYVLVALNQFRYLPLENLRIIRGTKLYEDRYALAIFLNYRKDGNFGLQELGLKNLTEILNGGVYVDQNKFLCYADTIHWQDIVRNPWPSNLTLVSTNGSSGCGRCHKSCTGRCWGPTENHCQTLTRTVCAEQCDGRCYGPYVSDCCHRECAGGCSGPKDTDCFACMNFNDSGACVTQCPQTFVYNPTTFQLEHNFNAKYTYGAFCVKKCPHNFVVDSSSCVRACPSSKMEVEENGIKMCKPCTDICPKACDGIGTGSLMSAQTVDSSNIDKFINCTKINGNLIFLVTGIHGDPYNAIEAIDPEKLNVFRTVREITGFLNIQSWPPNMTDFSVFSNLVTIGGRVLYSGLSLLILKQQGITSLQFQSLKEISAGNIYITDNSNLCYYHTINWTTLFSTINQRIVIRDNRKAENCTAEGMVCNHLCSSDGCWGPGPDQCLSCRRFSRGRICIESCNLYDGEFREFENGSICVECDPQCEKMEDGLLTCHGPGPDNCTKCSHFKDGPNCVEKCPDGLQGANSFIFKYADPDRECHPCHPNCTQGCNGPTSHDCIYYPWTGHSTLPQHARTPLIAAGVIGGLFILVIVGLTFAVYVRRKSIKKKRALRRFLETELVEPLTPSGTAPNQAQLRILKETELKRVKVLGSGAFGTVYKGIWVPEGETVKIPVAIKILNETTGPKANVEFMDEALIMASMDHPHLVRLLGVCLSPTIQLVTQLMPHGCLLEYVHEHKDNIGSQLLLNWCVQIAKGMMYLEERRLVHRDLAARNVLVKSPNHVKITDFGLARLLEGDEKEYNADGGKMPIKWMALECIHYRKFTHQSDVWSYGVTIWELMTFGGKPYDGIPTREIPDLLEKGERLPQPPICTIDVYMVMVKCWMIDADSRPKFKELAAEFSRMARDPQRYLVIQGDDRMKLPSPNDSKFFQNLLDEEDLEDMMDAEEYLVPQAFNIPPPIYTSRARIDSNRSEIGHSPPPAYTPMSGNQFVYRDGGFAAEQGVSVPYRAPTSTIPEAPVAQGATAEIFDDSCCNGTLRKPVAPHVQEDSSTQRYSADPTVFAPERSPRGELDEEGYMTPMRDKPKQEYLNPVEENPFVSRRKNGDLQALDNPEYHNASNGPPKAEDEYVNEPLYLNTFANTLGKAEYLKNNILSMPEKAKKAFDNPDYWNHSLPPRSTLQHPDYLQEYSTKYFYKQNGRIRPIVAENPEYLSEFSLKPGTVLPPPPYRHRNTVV
Experimental: as §8, §9

[4] = pH 7.0 buffer solution (20 mM), pH 7.0 buffer (20 mM), read-out: Solubility at pH 7.0
[5] = pH 10.0 buffer solution (20 mM), pH 10.0 buffer (20 mM), read-out: Solubility at pH 10.0

SMILES | IC50 (CYP 3A4) [µM] | solubility compared with compound A at pH=7.0 ([1]; pH 7.0, comparison in words) | solubility at 30 min [1, 4] [µg/mL] | solubility at 30 min [1, 5] [µg/mL] | IC50 (NCI-H69 Cell) [µM] | IC50 (HCC827 Cell) [µM] | rate of metabolism (k) in Rat whole blood [2] | K value compared with PF-06463922 and Compound 10 ([2]; rat whole blood, comparison in words) | inhibitor potency for mutant EGFR (L747-E749del, A750P) [3] [µM] | Kinase Inhibition EGFR(L747-E749del, A750P) ([3]; mutant EGFR, Table A) [µM] | Kinase Inhibition ERBB4 (ERBB4) [µM] | Cytochrome P450 3A4 inhibition (DDI risk class) (CYP 3A4)
C[C@H]1Oc2cc(cnc2NC(=O)CN)-c2c(nn(C)c2C#N)CN(C)C(=O)c2ccc(F)cc21 [Compound 6, (10R)-7-(2-aminoacetyl)amino-12-fluoro-2,10,16-trimethyl-15-oxo-10,15,16,17-tetrahydro-2H-8,4-(metheno)pyrazolo[4,3-h][2,5,11]-benzoxadiazacyclotetradecine-3-carbonitrile] | 10 | much higher solubility | 91 (≈ 196 µM) | 36 (≈ 77.7 µM) | 77.1 | 65.6 | 0.6169 | much larger K value | 0.42 | 0.4 | 5.7 | 
CC(=O)Nc1ncc2cc1O[C@H](C)c1cc(F)ccc1C(=O)N(C)Cc1nn(C)c(C#N)c1-2 [Compound 10, (10R)-7-acetamido-12-fluoro-2,10,16-trimethyl-15-oxo-10,15,16,17-tetrahydro-2H-8,4-(metheno)pyrazolo[4,3-h][2,5,11]-benzoxadiazacyclotetradecine-3-carbonitrile] | 14 |  |  |  |  |  | 0.07435 |  |  |  |  | 
C[C@H]1Oc2cc(cnc2N)-c2c(nn(C)c2C#N)CN(C)C(=O)c2ccc(F)cc21 [Compound A, (10R)-7-amino-12-fluoro-2,10,16-trimethyl-15-oxo-10,15,16,17-tetrahydro-2H-8,4-(metheno)pyrazolo[4,3-h][2,5,11]-benzoxadiazacyclotetradecine-3-carbonitrile, reference compound] |  |  | 29 (≈ 71.4 µM) | 28 (≈ 68.9 µM) |  |  | −0.07473 |  |  |  |  | moderate (3 μM<IC50<10 μM CYP inhibition moderate)
